Here are results for 1 substance from US6953832B2, “Dental materials based on polyfunctional amides” (Ivoclar Vivadent AG, priority 2001, dated 2005).

The data set is described as follows: Hydrolysis stability of monomer in water/ethanol/phosphoric acid (1H-NMR). Format: physicochemical. From the text:
A major advantage of the amides according to the invention is to be seen in their hydrolysis stability. Aqueous solutions of the amides are thus also storage-stable in the presence of acidic compounds. As a linking of the monomer components via covalent C—C single bonds takes place on polymerization, this also applies to the corresponding polymers.

Consider Glycerine dimethacrylate, for which the Hydrolysis stability result (20 wt.-% solution in 1:1:1 water, ethanol and 10% phosphoric acid, 37° C., 4 weeks, 1H-NMR) is listed as “−”. Besides, the “Hydrolysis stability in the presence of acid (in words)” value (aqueous solution, in the presence of phosphoric acid / acidic compounds) is “completely split to form glycerine and methacrylic acid”.
